Test results published in ChEMBL document CHEMBL1201862, “PubChem BioAssay data set” (2004).
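A five-concentration, 48-hour dose response in 96-well plates underlies each endpoint, interpolated linearly between surrounding concentrations. Here, GI50 denotes the concentration required for 50% inhibition of growth.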 Calls of active or inactive are those of the source. Rule as the data show it: active = GI50 up to about 1.1 µM and inactive = higher.

How the values were obtained:
Test in all cases: NCI tumour cell line growth inhibition, 48 h
SNB-75 = system: SNB-75
A549 = system: A549
SF-539 = system: SF-539
M19-MEL = system: M19-MEL
UO-31 = system: UO-31
A498 = system: A498
786-0 = system: 786-0
K562 = system: K562
HOP-18 = system: HOP-18
TK-10 = system: TK-10
NCI-H23 = system: NCI-H23
KM12 = system: KM12
UACC-257 = system: UACC-257
LXFL 529 = system: LXFL 529
U-251 = system: U-251
UACC-62 = system: UACC-62
HOP-62 = system: HOP-62
SK-MEL-28 = system: SK-MEL-28
HOP-92 = system: HOP-92
SK-MEL-5 = system: SK-MEL-5
OVCAR-8 = system: OVCAR-8
NCI-H460 = system: NCI-H460
SK-OV-3 = system: SK-OV-3
SF-268 = system: SF-268
HCT-116 = system: HCT-116
ACHN = system: ACHN
SNB-78 = system: SNB-78
Malme-3M = system: Malme-3M
OVCAR-4 = system: OVCAR-4
IGROV-1 = system: IGROV-1
LOX IMVI = system: LOX IMVI
RXF 393 = system: RXF 393
DMS-114 = system: DMS-114
EKVX = system: EKVX
OVCAR-5 = system: OVCAR-5
XF498 = system: XF498
DMS-273 = system: DMS-273
M14 = system: M14
HCT-15 = system: HCT-15
SW-620 = system: SW-620
MOLT-4 = system: MOLT-4
NCI-H226 = system: NCI-H226
SK-MEL-2 = system: SK-MEL-2
KM-20L2 = system: KM-20L2
SNB-19 = system: SNB-19
CCRF-CEM = system: CCRF-CEM
COLO 205 = system: COLO 205
CAKI-1 = system: CAKI-1
DLD-1 = system: DLD-1
HCC 2998 = system: HCC 2998
NCI-H522 = system: NCI-H522
SF-295 = system: SF-295
OVCAR-3 = system: OVCAR-3
SN12C = system: SN12C

How did the GI50 (SNB-75) turn out when `CC(C)(C)C1CC[C@H]2c3c([nH]c4ccccc34)[C@H]3C(=O)N(c4ccc(F)cc4)C(=O)[C@H]3[C@H]2C1` (some centres undefined) was run?
The GI50 was 10.5 µM (inactive).

And the GI50 (A549)?
Its GI50 is 12 µM (inactive).

And the GI50 (SF-539)?
Its GI50 is 18.9 µM (inactive).

And the GI50 (M19-MEL)?
Its GI50 is 17.1 µM (inactive).

What about the GI50 (UO-31) of the same molecule?
Its GI50 is 15.8 µM (inactive).

What about the GI50 (A498) of the same molecule?
Its GI50 is 29.9 µM (inactive).

What about the GI50 (786-0) of the same molecule?
The GI50 was 11.3 µM (inactive).

What about the GI50 (K562) of the same molecule?
Its GI50 is 20.7 µM (inactive).

What about the GI50 (HOP-18) of the same molecule?
Its GI50 is 17.1 µM (inactive).

And the GI50 (TK-10)?
The GI50 was 16.3 µM (inactive).

What about the GI50 (NCI-H23) of the same molecule?
The GI50 was 18.6 µM (inactive).

What about the GI50 (KM12) of the same molecule?
Its GI50 is 14.1 µM (inactive).

What about the GI50 (UACC-257) of the same molecule?
Its GI50 is 22.6 µM (inactive).

And the GI50 (LXFL 529)?
The GI50 was 16 µM (inactive).

What about the GI50 (U-251) of the same molecule?
Its GI50 is 8.75 µM (inactive).

What about the GI50 (UACC-62) of the same molecule?
The GI50 was 15.5 µM (inactive).

What about the GI50 (HOP-62) of the same molecule?
Its GI50 is 16.5 µM (inactive).

And the GI50 (SK-MEL-28)?
The GI50 was 23.6 µM (inactive).

What about the GI50 (HOP-92) of the same molecule?
Its GI50 is 28.1 µM (inactive).

And the GI50 (SK-MEL-5)?
Its GI50 is 18.7 µM (inactive).

What about the GI50 (OVCAR-8) of the same molecule?
Its GI50 is 12.1 µM (inactive).

What about the GI50 (NCI-H460) of the same molecule?
Its GI50 is 13.6 µM (inactive).

What about the GI50 (SK-OV-3) of the same molecule?
The GI50 was 17.8 µM (inactive).

And the GI50 (SF-268)?
The GI50 was 13.6 µM (inactive).

What about the GI50 (HCT-116) of the same molecule?
The GI50 was 11.6 µM (inactive).

What about the GI50 (ACHN) of the same molecule?
Its GI50 is 14.1 µM (inactive).

What about the GI50 (SNB-78) of the same molecule?
Its GI50 is 18.4 µM (inactive).

What about the GI50 (Malme-3M) of the same molecule?
Its GI50 is 16.9 µM (inactive).

And the GI50 (OVCAR-4)?
Its GI50 is 11.2 µM (inactive).

And the GI50 (IGROV-1)?
The GI50 was 17 µM (inactive).

What about the GI50 (LOX IMVI) of the same molecule?
The GI50 was 20.3 µM (inactive).

And the GI50 (RXF 393)?
The GI50 was 27.4 µM (inactive).

And the GI50 (DMS-114)?
Its GI50 is 17.1 µM (inactive).

What about the GI50 (EKVX) of the same molecule?
The GI50 was 16.3 µM (inactive).

And the GI50 (OVCAR-5)?
Its GI50 is 28.9 µM (inactive).

And the GI50 (XF498)?
Its GI50 is 14.2 µM (inactive).

And the GI50 (DMS-273)?
The GI50 was 17.8 µM (inactive).

What about the GI50 (M14) of the same molecule?
The GI50 was 18.5 µM (inactive).

What about the GI50 (HCT-15) of the same molecule?
Its GI50 is 20.7 µM.

And the GI50 (SW-620)?
The GI50 was 17 µM (inactive).

What about the GI50 (MOLT-4) of the same molecule?
The GI50 was 13.2 µM (inactive).

What about the GI50 (NCI-H226) of the same molecule?
The GI50 was 19.1 µM (inactive).

What about the GI50 (SK-MEL-2) of the same molecule?
Its GI50 is 15.8 µM (inactive).

And the GI50 (KM-20L2)?
The GI50 was 17.5 µM (inactive).

And the GI50 (SNB-19)?
The GI50 was 15.9 µM (inactive).

What about the GI50 (CCRF-CEM) of the same molecule?
Its GI50 is 16.7 µM (inactive).

What about the GI50 (COLO 205) of the same molecule?
The GI50 was 14.5 µM (inactive).

What about the GI50 (CAKI-1) of the same molecule?
The GI50 was 17.9 µM (inactive).

And the GI50 (DLD-1)?
The GI50 was 16.8 µM (inactive).

And the GI50 (HCC 2998)?
Its GI50 is 13.6 µM (inactive).

And the GI50 (NCI-H522)?
Its GI50 is 12.4 µM (inactive).

And the GI50 (SF-295)?
The GI50 was 14.8 µM (inactive).

What about the GI50 (OVCAR-3) of the same molecule?
Its GI50 is 16.7 µM (inactive).

And the GI50 (SN12C)?
The GI50 was 11.1 µM (inactive).
